Molecules are shown by their SMILES. In brackets after ≈: the same amount, converted by molar mass.

In one assay the test system is E. coli. As to the kind of experiment: MIC by broth microdilution (CLSI), E. coli. It counts as cell-based. The note with it: broth microdilution, cation adjusted Mueller-Hinton Broth, 35° C., 18-24 h; for MIC: Escherichia coli, read-out: E. coli MIC. The method, then: (§1) Minimal inhibitory concentrations (MIC) were determined by the broth microdilution method in accordance with the Clinical and Laboratory Standards Institute (CLSI) guidelines. In brief, organism suspensions were adjusted to a 0.5 McFarland standard to yield a final inoculum between 3×10^5 and 7×10^5 colony-forming units (CFU)/mL. Drug dilutions and inocula were made in sterile, cation adjusted Mueller-Hinton Broth (Beckton Dickinson). An inoculum volume of 100 μL was added to wells containing 100 μL of broth with 2-fold serial dilutions of drug. All inoculated microdilution trays were incubated in ambient air at 35° C. for 18-24 h. Following incubation, the lowest concentration of the drug that prevented visible growth (OD600 nm<0.05) was recorded as the MIC. Performance of the assay was monitored by the use of laboratory quality-control strains and levofloxacin, a compound with a defined MIC spectrum, in accordance with CLSI guidelines.
For orientation: Broth dilution looks for growth in wells or tubes with falling amounts of substance.

For a further assay, the system named is K. pneumoniae. Nature of the assay: MIC by broth microdilution (CLSI), K. pneumoniae. It counts as cell-based. As to conditions: broth microdilution, cation adjusted Mueller-Hinton Broth, 35° C., 18-24 h; for MIC: Klebsiella pneumoniae, read-out: K. pneumoniae MIC. The protocol:
as §1

`OCC(Cc1nncc(O)c1O)c1ccc(C#Cc2ccc(CN[C@H]3CCOC3)cc2)cc1` (single isomer, unassigned) [Compound 101]: in the assay with E. coli, the “E. coli MIC” value is “B (B: >1 μg/mL to ≤8.0 μg/mL)”. Also, the “K. pneumoniae MIC” value with K. pneumoniae was “B (B: >1 μg/mL to ≤8.0 μg/mL)”.
As for `OCC(Cc1nncc(O)c1O)c1ccc(C#Cc2ccc(CN[C@H]3CCOC3)cc2)cc1` (single isomer, unassigned) [Compound 102], the “E. coli MIC” value in the assay with E. coli is on record as “C (C: >8.0 μg/mL to ≤32 μg/mL)”. The “K. pneumoniae MIC” value in the assay on K. pneumoniae was “C (C: >8.0 μg/mL to ≤32 μg/mL)”.
For orientation: MIC means the smallest concentration in the dilution series that meets the test's criterion for growth inhibition. With `CC(=O)NCC(Cc1ccc(C#Cc2ccc(CN3CCOCC3)cc2)cc1)c1nncc(O)c1O` (stereo not drawn) [Compound 11, N-(2-(4,5-dihydroxypyridazin-3-yl)-3-(4-((4-(morpholinomethyl)phenyl)ethynyl)phenyl)propyl) acetamide], the MIC in the assay on E. coli and in the assay with K. pneumoniae was 8 to 32 µg/mL (≈ 16.4 to 65.8 µM) each time.
Consider `O=c1[nH]cnc(CCc2ccc(C#Cc3ncccn3)cc2)c1O` [Compound 14, 5-hydroxy-6-(4-(pyrimidin-2-ylethynyl)phenethyl) pyrimidin-4(3H)-one], for which the MIC in the assay on E. coli was 8 to 32 µg/mL (≈ 25.1 to 101 µM); in the assay on K. pneumoniae it was over 32 µg/mL.
For `O=c1[nH]cnc(CCc2ccc(C#Cc3ccc(CNC4CC(O)C4)cc3)cn2)c1O` (stereo not drawn) [Compound 15, 5-hydroxy-6-(2-(5-((4-(((3-hydroxycyclobutyl)amino)methyl)phenyl)ethynyl)pyridin-2-yl)ethyl)pyrimidin-4(3H)-one] the same measures were 8 to 32 µg/mL (≈ 19.2 to 76.8 µM) and over 32 µg/mL.
With `O=c1[nH]cnc(CCc2ccc(C#Cc3ccc(CN4CCOCC4)cn3)cc2)c1O` [Compound 16, 5-hydroxy-6-(4-((5-(morpholinomethyl)pyridin-2-yl)ethynyl)phenethyl) pyrimidin-4(3H)-one], the MIC in the assay on E. coli was under 1 µg/mL; with K. pneumoniae, 1 to 8 µg/mL (≈ 2.4 to 19.2 µM).
With `O=c1[nH]cnc(CCc2ccc(C#Cc3ccc(CN4CCOCC4)nc3)cc2)c1O` [Compound 17, 5-hydroxy-6-(4-((6-(morpholinomethyl)pyridin-3-yl)ethynyl)phenethyl) pyrimidin-4(3H)-one], the results for the minimum inhibitory concentration (MIC) with E. coli and with K. pneumoniae were under 1 µg/mL and 1 to 8 µg/mL (≈ 2.4 to 19.2 µM), respectively.
As to `O=c1[nH]cnc(CCc2ccc(C#Cc3ccncc3)cc2)c1O` [Compound 18, 5-hydroxy-6-(4-(pyridin-4-ylethynyl)phenethyl) pyrimidin-4(3H)-one], the minimal inhibitory concentration (MIC) in the assay on E. coli is under 1 µg/mL; in the assay on K. pneumoniae, over 32 µg/mL.
With `O=c1[nH]cnc(CCc2ccc(C#Cc3ccc(CN4CCOCC4)cc3)cn2)c1O` [Compound 19, 5-hydroxy-6-(2-(5-((4-(morpholinomethyl)phenyl)ethynyl)pyridin-2-yl)ethyl)pyrimidin-4(3H)-one], the minimal inhibitory concentration (MIC) with E. coli is under 1 µg/mL; in the assay on K. pneumoniae it was 1 to 8 µg/mL (≈ 2.4 to 19.2 µM).
In the case of `O=c1[nH]cnc(CCc2ccc(C#Cc3ccc(CNC4CCOC4)cc3)cn2)c1O` (stereo not drawn) [Compound 20, 5-hydroxy-6-(2-(5-((4-(((tetrahydrofuran-3-yl)amino)methyl)phenyl)ethynyl)pyridin-2-yl)ethyl)pyrimidin-4(3H)-one], the minimum inhibitory concentration (MIC) in the assay with E. coli was under 1 µg/mL; in the assay on K. pneumoniae, 8 to 32 µg/mL (≈ 19.2 to 76.8 µM).
Consider `O=c1[nH]cnc(CCn2ccc(C#Cc3ccc(CN4CCOCC4)cc3)cc2=O)c1O` [Compound 23, 5-hydroxy-6-(2-(4-((4-(morpholinomethyl)phenyl)ethynyl)-2-oxopyridin-1(2H)-yl)ethyl)pyrimidin-4(3H)-one], for which the MIC with E. coli was under 1 µg/mL; in the assay with K. pneumoniae it was 8 to 32 µg/mL (≈ 18.5 to 74 µM).
Regarding `Nc1ncc(C#Cc2ccc(CC(C(=O)NCC(F)F)c3nc[nH]c(=O)c3O)cc2)cn1` (stereo not drawn) [Compound 24, 3-(4-((2-aminopyrimidin-5-yl)ethynyl)phenyl)-N-(2,2-difluoroethyl)-2-(5-hydroxy-6-oxo-1,6-dihydropyrimidin-4-yl)propanamide], the MIC in the assay with E. coli and with K. pneumoniae was over 32 µg/mL throughout.
As for `Cc1ncc(C#Cc2ccc(CC(C(=O)NCC(F)F)c3nc[nH]c(=O)c3O)cc2)cn1` (stereo not drawn) [Compound 25, N-(2,2-difluoroethyl)-2-(5-hydroxy-6-oxo-1,6-dihydropyrimidin-4-yl)-3-(4-((2-methylpyrimidin-5-yl)ethynyl)phenyl)propanamide], the MIC with E. coli and in the assay on K. pneumoniae was over 32 µg/mL each time.
For the compound `O=C(NCC(F)F)C(Cc1ccc(C#Cc2ccc(C(F)(F)F)nc2)cc1)c1nc[nH]c(=O)c1O` (stereo not drawn) [Compound 26, N-(2,2-difluoroethyl)-2-(5-hydroxy-6-oxo-1,6-dihydropyrimidin-4-yl)-3-(4-((6-(trifluoromethyl)pyridin-3-yl)ethynyl)phenyl) propanamide], the MIC in the assay with E. coli and with K. pneumoniae was over 32 µg/mL each time.
In the case of `O=C(NCC(F)F)C(Cc1ccc(C#Cc2cnc(C(F)(F)F)nc2)cc1)c1nc[nH]c(=O)c1O` (stereo not drawn) [Compound 27, N-(2,2-difluoroethyl)-2-(5-hydroxy-6-oxo-1,6-dihydropyrimidin-4-yl)-3-(4-((2-(trifluoromethyl)pyrimidin-5-yl)ethynyl)phenyl) propanamide], the MIC with E. coli and in the assay on K. pneumoniae was over 32 µg/mL each time.
For `CS(=O)(=O)C(Cc1ccc(C#Cc2ccc(CN3CCOCC3)cc2)cc1)c1occc(=O)c1O` (stereo not drawn) [Compound 120, 3-hydroxy-2-(l1-(methylsulfonyl)-2-(4-((4-(morpholinomethyl)phenyl)ethynyl)phenyl)ethyl)-4H-pyran-4-one], in the assay on E. coli, the MIC was over 32 µg/mL.
Still for that read-out and setting: the figure for `N#CC(Cc1ccc(C#Cc2ccc(CN3CCOCC3)cc2)cc1)c1cc[nH]c(=O)c1O` (stereo not drawn) [Compound 121, 2-(3-hydroxy-2-oxo-1,2-dihydropyridin-4-yl)-3-(4-((4-(morpholinomethyl)phenyl)ethynyl)phenyl)propanenitrile] is over 32 µg/mL.
As for `O=C(O)c1ccc(C#Cc2ccc(NCc3occc(=O)c3O)cc2)cc1` [Compound 123, 4-((4-(((3-hydroxy-4-oxo-4H-pyran-2-yl)methyl)amino)phenyl)ethynyl)benzoic acid], the minimal inhibitory concentration (MIC) in the assay on E. coli is over 32 µg/mL.
Consider `O=c1ccoc(CS(=O)(=O)c2ccc(C#Cc3ccc(CN4CCOCC4)cc3)cc2)c1O` [Compound 124, 3-hydroxy-2-(((4-((4-(morpholinomethyl)phenyl)ethynyl)phenyl)sulfonyl)methyl)-4H-pyran-4-one], for which the minimal inhibitory concentration (MIC) in the assay with E. coli is over 32 µg/mL.
For the compound `C=CCC(Nc1ccc(C#Cc2ccc(CN3CCOCC3)cc2)cc1)c1occc(=O)c1O` (stereo not drawn) [Compound 126, 3-hydroxy-2-(1-((4-((4-(morpholinomethyl)phenyl)ethynyl)phenyl)amino)but-3-en-1-yl)-4H-pyran-4-one], the MIC with E. coli is over 32 µg/mL.
For the compound `O=c1[nH]cnc(CN(CCO)c2ccc(C#Cc3ccc(CN4CCOCC4)cc3)cc2)c1O` [Compound 127, 5-hydroxy-6-(((2-hydroxyethyl)(4-((4-(morpholinomethyl)phenyl)ethynyl)phenyl)amino)methyl) pyrimidin-4(3H)-one], in the assay with E. coli, the MIC is over 32 µg/mL.
Same read-out and setting: the figure for `O=c1[nH]cnc(CNc2ccc(C#Cc3ccc(-c4ncco4)cc3)cc2)c1O` [Compound 128, 5-hydroxy-6-(((4-((4-(oxazol-2-yl)phenyl)ethynyl)phenyl)amino)methyl)pyrimidin-4(3H)-one] is over 32 µg/mL; for `O=c1[nH]cnc(CNc2ccc(C#Cc3ccc(-c4nnn[nH]4)cc3)cc2)c1O` [Compound 129, 6-(((4-((4-(1H-tetrazol-5-yl)phenyl)ethynyl)phenyl)amino)methyl)-5-hydroxypyrimidin-4(3H)-one] it is over 32 µg/mL.
Consider `O=C(Nc1ccc(C#CC#Cc2ccccc2)cc1)c1occc(=O)c1O` [Compound 130, 3-hydroxy-4-oxo-N-(4-(phenylbuta-1,3-diyn-1-yl)phenyl)-4H-pyran-2-carboxamide], for which, in the assay on E. coli, the MIC is over 32 µg/mL.

The values are drawn from US20220081421A1, “ANTIBACTERIAL COMPOUNDS” (Forge Therapeutics, Inc., priority 2018, published 2022).
